This note sets out measurements from patent publication US5166201A, “2β,19-ethylene bridged steroids as aromatase inhibitors” (Merrell Dow Pharmaceuticals Inc., priority 1990, dated 1992).

This assay addresses T1, aromatase (Homo sapiens, UniProt P11511).
T1 construct: microsomal protein per ml of assay buffer; from tissue; host or cells: microsomes
T1 sequence (P11511 1-503): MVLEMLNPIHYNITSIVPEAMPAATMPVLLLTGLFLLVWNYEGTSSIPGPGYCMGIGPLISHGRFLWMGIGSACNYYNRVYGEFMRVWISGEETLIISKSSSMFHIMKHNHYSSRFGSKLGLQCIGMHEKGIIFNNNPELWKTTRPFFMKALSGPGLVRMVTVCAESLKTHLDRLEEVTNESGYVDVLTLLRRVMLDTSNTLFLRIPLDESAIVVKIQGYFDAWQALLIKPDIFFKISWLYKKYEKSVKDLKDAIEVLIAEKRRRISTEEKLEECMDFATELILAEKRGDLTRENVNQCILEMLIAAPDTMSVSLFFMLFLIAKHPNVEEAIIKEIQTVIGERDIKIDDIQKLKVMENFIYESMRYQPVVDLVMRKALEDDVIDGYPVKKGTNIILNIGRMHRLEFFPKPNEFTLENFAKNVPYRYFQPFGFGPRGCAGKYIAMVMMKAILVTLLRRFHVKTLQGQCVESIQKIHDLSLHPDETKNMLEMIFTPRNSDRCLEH
Put plainly: time-dependent aromatase inhibition assay (preincubation, Kitz-Wilson analysis). In kind it is biochemical. The protocol:
In this assay, the inhibitor is preincubated with enzyme prior to assaying for activity in the presence of high substrate levels. A time-related decrease in enzyme activity can be indicative of irreversible binding […] a preferred method of inhibition.
In the time-dependent assay, an amount of the enzyme inhibitor in 100 μl of the assay buffer described above which will provide assay concentrations which are usually between 1 nM and 10 μm are added to 35-ml centrifuge tubes containing 600 μl of the NADPH generating system. The preincubation is started by the addition of 700 μl of aromatase preparation, usually 300-800 μg of microsomal protein per ml of assay buffer. These preparations are mixed using a vortex mixer and incubated for 0, 5, 10 or 20 minutes at 25° C. Then 100 μl of androstenedione (-6.8 μM) containing 1β-^3 H androstenedione is added in assay buffer to provide an assay concentration of substrate (0.55 μM) which is at least ten times the Km of androstenedione (0.04 μM). Following vortexing, the enzyme incubation is continued for 10 minutes before being terminated by the addition of chloroform. The amount of radioactivity in the aqueous fraction is determined by scintillation procedures. The enzymatic activity for each concentration of inhibitor at each time period of preincubation is calculated as a percent of the "0" minute vehicle control arbitrarily set at 100%. Therefore, the present enzyme inhibition is expressed as a percentage: (100 percent minus percent enzyme activity with inhibitor present).
Enzyme kinetic analysis utilized Kitz-Wilson plots for time-dependent assays. These analyses provide estimates of apparent Ki of inactivation which represents the inhibitor concentration required to produce half-maximal rate of enzyme inactivation. The pseudo first-order rate constant for enzyme inactivation (kcat) and the half-time of inactivation (.tau.50) of infinite inhibitor concentrations were determined. […]

Molecules are shown by their SMILES.

Regarding `C[C@]12CC[C@H]3[C@@H](CCC4=CC(=O)[C@H]5CCC[C@]43C5)[C@@H]1CCC2=O` [2β,19-(ethylene)androst-4-ene-3,17-dione], the kinact/KI (Kitz-Wilson analysis, read-out: kcat /Ki (inactivation) ratio, index of efficiency of enzyme inactivation) is 558000 M⁻¹ s⁻¹. Under “Kitz-Wilson plot, microsomal aromatase preparation, 25° C.”, the “half-time of inactivation (.tau.50) at infinite inhibitor concentration” value worked out at 0.87 min. Also, the KI (inactivation) (Kitz-Wilson plot, microsomal aromatase preparation, preincubation 0-20 min at 25° C., androstenedione 0.55 μM, read-out: apparent Ki of inactivation) stood at 0.0239 µM.
